The target of assay [1] is T1, Sentrin-specific protease 8 (Homo sapiens, UniProt Q96LD8).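 Further: kinetic enzyme assay of SENP8 cleaving a Nedd8 protein substrate, dose-response confirmation of screening hits.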
T1 sequence (Q96LD8 whole entry): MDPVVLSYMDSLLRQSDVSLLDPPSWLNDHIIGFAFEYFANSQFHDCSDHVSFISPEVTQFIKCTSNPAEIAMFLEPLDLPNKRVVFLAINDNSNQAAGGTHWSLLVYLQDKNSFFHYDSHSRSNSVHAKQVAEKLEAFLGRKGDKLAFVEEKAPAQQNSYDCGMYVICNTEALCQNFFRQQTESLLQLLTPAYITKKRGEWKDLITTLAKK
It counts as functional.

The nature of assay [2]: inhibitors of firefly luciferase expression or activity, dose response, H4 neuroglioma cells, luminescence (AID 1990). It counts as functional, cell-based.
A short description of assay [3]: inhibitors of SNCA 5'UTR-driven reporter translation, confirmation, H4 neuroglioma cells, luminescence (AID 1988). It counts as functional, cell-based.
In assay [4] the target is T2, Long-chain-fatty-acid--AMP ligase FadD28 (Mycobacterium tuberculosis, UniProt P9WQ59).
T2 sequence (P9WQ59 whole entry): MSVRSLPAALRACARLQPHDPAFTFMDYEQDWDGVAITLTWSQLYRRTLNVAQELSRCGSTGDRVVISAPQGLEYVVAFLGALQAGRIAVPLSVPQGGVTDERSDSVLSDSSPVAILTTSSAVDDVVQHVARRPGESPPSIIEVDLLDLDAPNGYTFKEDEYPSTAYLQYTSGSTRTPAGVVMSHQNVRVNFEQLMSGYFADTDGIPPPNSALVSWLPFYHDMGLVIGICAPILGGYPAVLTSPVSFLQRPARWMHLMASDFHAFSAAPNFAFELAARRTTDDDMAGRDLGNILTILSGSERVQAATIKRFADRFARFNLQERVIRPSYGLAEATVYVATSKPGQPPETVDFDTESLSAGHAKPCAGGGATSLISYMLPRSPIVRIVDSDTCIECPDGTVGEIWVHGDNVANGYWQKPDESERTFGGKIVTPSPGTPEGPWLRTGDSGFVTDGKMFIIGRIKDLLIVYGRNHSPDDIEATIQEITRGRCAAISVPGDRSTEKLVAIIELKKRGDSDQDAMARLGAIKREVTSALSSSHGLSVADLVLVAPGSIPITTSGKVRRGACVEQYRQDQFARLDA
The assay can be described thus: Fluorescence polarization aasay to screen for inhibitors that compete for the binding of FadD28 to a bisubstrate Measured in Biochemical System Using Plate Reader - 2147-01_Inhibitor_Dose_CherryPick_Activity. In kind it is functional, Mycobacterium tuberculosis H37Rv. For orientation: In fluorescence polarisation assays a small probe gives low polarisation when free and higher when bound to something large.

Structures are written as SMILES. Active and inactive are the calls of the source.

As a reminder, the IC50 is the concentration that gives 50% inhibition. For `COc1ccc(NC(=S)Nc2ccc3nsnc3c2)cc1`, in assay [1], the IC50 is 2.3 µM (active). By EC50 is commonly meant the concentration that produces a half-maximal response. With `CC(C)(C)c1cc[n+](C2=C([N-]S(=O)(=O)c3ccccc3)C(=O)c3ccccc3C2=O)cc1`, the values for the EC50 in assay [2] and in assay [3] were > 120 µM (not active) and 9.04 µM (active), respectively.

By AC50 is commonly meant the concentration giving half of the maximal activity seen. With `O=C1C=C(Nc2ccccc2C(=O)O)c2ccccc2C1=O`, in assay [4], the AC50 is > 100 µM (inactive).
